# Source: US7144864B2, “Carboxypeptidase R inhibiting peptide” (Hidechika Okada, priority 2002, dated 2006)
# Entries after “also recorded” stand apart in the source; their conditions may differ. Bridge positions count the residues as written; N and C are the ends. Ends that are not written are not given here. Peptide text beside a SMILES is read from it.
# Columns and labels:
# [1] = biological target: T1, purified CPR (carboxypeptidase R) (Homo sapiens, UniProt Q96IY4); assay: CPR kinetics: inhibition of CPR-catalysed hydrolysis of hippuryl-L-arginine; assay type: biochemical
# T1 construct: from tissue
# T1 sequence (Q96IY4 115-423): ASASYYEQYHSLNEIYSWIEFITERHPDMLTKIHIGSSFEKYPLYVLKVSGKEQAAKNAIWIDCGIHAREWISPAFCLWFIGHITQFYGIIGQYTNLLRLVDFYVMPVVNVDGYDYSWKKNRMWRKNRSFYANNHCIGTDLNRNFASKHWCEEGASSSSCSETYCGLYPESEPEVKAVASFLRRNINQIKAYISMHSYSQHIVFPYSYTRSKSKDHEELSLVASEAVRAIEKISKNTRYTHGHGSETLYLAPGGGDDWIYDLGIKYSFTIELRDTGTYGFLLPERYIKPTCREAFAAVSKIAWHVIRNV
# Procedure: (§1) ProCPR was purified to homogeneity as previously described. […] CPN was purified to homogeneity as previously described. The enzyme gave three bands on SDS-PAGE at 83 kDa, 53 kDa and 50 kDa corresponding to the two large identical glycosylated subunits and the two smaller active subunits, respectively.
# The activity of the CPR inhibitors was determined against purified CPR using hippuryl-L-arginine as the substrate. The peptides PCI-2K-R, CPI-2KR, PCI (500, 250/125/62.5, 50 mg/ml, respectively) or Tris-HCl buffer (50 mM; pH 7.5) were added to active CPR (40–320 mg/ml) at a 1:7 ratio. After thorough mixing, […] was incubated with various concentrations of hippuryl-L-arginine (1.2–6.0 mM), for 15 minutes at 37° C. The reaction was stopped with the addition of sodium phosphate buffer ([…]; 0.25 M), immediately followed by 3% cyanuric chloride in 1,4-dioxane ([…]). After mixing well, the generation of hippuric acid was determined by measuring the OD at 405 nm on a SpectraMAX 250 Microplate Spectrophotometer (Molecular Device Corporation, Sunnyvale, Calif., USA). Hippuric acid (0–2.0 mM) in Tris buffer was used as the standard.
# A kinetics analysis of the CPR-catalysed hydrolysis of hippuryl-L-arginine in the absence and presence of inhibitory molecules was performed. The Lineweaver-Burk reciprocal plot, based on rearrangement of the Henri-Michaelis-Menten equation into a linear form, was applied:
# [formula] where v (in mM sec^−1) is the instantaneous or initial velocity, [S] (mM) is the substrate concentration, Km(mM)is equivalent to the substrate concentration that yields half-maximal velocity and Vmax(mM sec^−1) is the maximum velocity. For competitive inhibition, where the inhibitor competes with the substrate for binding to the enzyme, the following mechanism was assumed: where
# In competitive inhibition, the apparent Vmax is not affected with increasing inhibitor concentrations because once substrate binds the reaction proceeds normally (i.e. Vmax depends only on maximum ES complex concentration, which only depends on the total amount of enzyme present) However, the apparent Km increases (i.e. a higher substrate concentration is required for a given velocity) by a factor of [1+([I]/Ki)].
# [formula] where Kmapp is the apparent Km for a given inhibitor concentration.
# The Dixon plot (1/v versus [I] in the presence of different concentrations of substrate) provides a more diagnostic way of identifying the type of inhibition and determining the Ki: […]
# [2] = system: TM-induced retardation of t-PA-induced fibrinolysis; assay: TM-induced retardation of t-PA-induced fibrinolysis in human plasma (clot lysis); assay type: biochemical
# Procedure: Human plasma was obtained by centrifugation of citrated blood at 3000 g for 15 minutes at room temperature. In a 96-well microtitre plate, […] of a thrombin/calcium mix [50 ml calcium (CaCl Q; 1 M), […] of thrombin (T; 500 U/ml) and 430 ml of Tris buffer (50 mM, pH 7.5)] was added followed by 10 ml of thrombomodulin (TM; final concentration 8 nM). Subsequently, 10 ml of peptide solution in Tris buffer (16 mg/ml […]), Tris buffer or PCI (50 mg/ml) were added. After the addition of 50 ml of a t-PA/plasma mix [[…] of t-PA (130 mg/ml) mixed with 1 ml of pre-warmed citrated plasma (37° C. for 5 minutes) ] the plate was immediately read at 420 nm every 5 minutes for 2 hours on a SpectraMAX 250 Microplate Spectrophotometer (Molecular Device Corporation, Sunnyvale, Calif., USA). Lysis time was defined as the time required for the absorbance to reach half the difference between the plateau reached after clotting and baseline achieved at clot lysis.
# [3] = biological target: T2, purified CPN (carboxypeptidase N) (Homo sapiens, UniProt P15169); assay: CPN kinetics: effect on purified CPN with hippuryl-L-arginine as substrate; assay type: biochemical
# T2 construct: corresponding to the two large identical glycosylated subunits and the two smaller active subunits; from tissue
# T2 sequence (P15169 21-458): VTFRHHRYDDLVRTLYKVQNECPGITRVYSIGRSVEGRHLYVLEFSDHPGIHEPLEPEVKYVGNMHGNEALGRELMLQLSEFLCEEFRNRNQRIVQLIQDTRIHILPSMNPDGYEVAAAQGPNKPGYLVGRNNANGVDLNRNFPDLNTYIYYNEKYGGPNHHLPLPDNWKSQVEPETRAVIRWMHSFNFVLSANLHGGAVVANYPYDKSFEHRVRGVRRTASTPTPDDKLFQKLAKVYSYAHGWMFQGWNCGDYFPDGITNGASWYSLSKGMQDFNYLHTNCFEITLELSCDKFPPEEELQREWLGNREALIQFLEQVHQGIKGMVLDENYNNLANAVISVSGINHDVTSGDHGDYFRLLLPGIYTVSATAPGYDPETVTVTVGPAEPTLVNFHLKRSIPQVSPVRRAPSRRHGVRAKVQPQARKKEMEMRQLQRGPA
# T2 sequence (P22792 22-545 partner): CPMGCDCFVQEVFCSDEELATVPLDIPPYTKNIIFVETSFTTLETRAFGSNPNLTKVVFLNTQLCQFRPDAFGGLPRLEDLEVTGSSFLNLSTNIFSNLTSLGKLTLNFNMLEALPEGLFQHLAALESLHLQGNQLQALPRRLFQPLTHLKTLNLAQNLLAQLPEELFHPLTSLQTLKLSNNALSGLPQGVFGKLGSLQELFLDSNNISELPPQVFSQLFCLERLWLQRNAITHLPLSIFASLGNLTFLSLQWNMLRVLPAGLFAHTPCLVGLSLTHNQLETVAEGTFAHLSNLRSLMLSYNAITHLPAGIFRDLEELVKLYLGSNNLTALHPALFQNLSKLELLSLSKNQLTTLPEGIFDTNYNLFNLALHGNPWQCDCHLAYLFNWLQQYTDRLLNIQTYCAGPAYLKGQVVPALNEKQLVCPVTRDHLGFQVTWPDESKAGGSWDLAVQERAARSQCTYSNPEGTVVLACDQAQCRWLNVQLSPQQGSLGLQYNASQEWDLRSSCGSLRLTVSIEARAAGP
# Procedure: as §1
# The effect of CPI-2KR on purified CPN was determined using hippuryl-L-arginine as the substrate. Guanidinoethylmercaptosuccinic acid (GEMSA) was used as a positive control. CPI-2KR ([…]), GEMSA ([…]) or Tris-HCl buffer (50 mM; pH 7.5) were added to CPN (10 mg/ml) at a 1:7 ratio. Identical conditions to those used for the CPR kinetics experiments were subsequently applied.
# CPR = biological target: T3, CPR (Homo sapiens, UniProt Q96IY4); details: cited from earlier work
# T3 sequence (Q96IY4 115-423): T1 sequence (Q96IY4 115-423)
molecule,measurement,setting,value
C[C@H](NC(=O)[C@H](CC(N)=O)NC(=O)[C@H](CCCCN)NC(=O)[C@H](C)NC(=O)[C@@H]1CCCN1C(=O)[C@H](CCCCN)NC(=O)[C@@H](N)CS)C(=O)N[C@@H](CCCNC(=N)N)C(=O)N[C@@H](CS)C(N)=O [CPI-2KR] (H-CKPAKNARC-NH2; N-terminus assumed),"Ki, fold higher than that of PCI",[1],6 fold
same,"binding affinity for CPR, fold stronger than PCI-2K-R",[1],~46 fold
same,inhibitory activity against CPR (in words),[1],competitive inhibitor
same,effect on TM-induced retardation of t-PA-induced fibrinolysis (in words),[2],synergistically accelerated fibrinolysis; also recorded: dose-responsive inhibition
same,"effective inhibitory concentration, fold higher than that of PCI",[2],10 fold
same,effective inhibitory concentration on TM-induced retardation of t-PA-induced fibrinolysis,[2]; TM 8 nM,126 nM
same,inhibitory activity against CPN,[3]; at 506 nM,did not exhibit any inhibitory activity
"N=C(N)NCCSC(CC(=O)O)C(=O)O (centres unmarked) [GEMSA, guanidinoethylmercaptosuccinic acid]",inhibitory activity against CPN,[3]; at 425 nM,inhibited
same,inhibitory activity against CPN,[3]; at 2.1 mM,strong inhibitory activity
same,concentration at which CPR is inhibited (literature [40]),CPR,18 mM
"CPI-2KR-cyclic: cyclised CPI-2KR via N- and C-terminal cysteine residues, SEQ ID NO: 3 (CKPAKNARC; disulfide 1-9)",effect on TM-induced retardation of t-PA-induced fibrinolysis (in words),[2],dramatic loss of inhibitory activity
"PCI-2K: PCI-derived peptide containing the two lysine residues, SEQ ID NO: 1 (NKPCKTHDD)",inhibitory activity against CPR (in words),[1],no activity was observed
"PCI-R: PCI-derived peptide containing the arginine residue, SEQ ID NO: 2 (QACWNSART)",inhibitory activity against CPR (in words),[1],no activity was observed
"PCI: small 39-residue protein (MW 4295 Da), potato carboxypeptidase inhibitor, SEQ ID NO: 4 (QQHADPICNKPCKTHDDCSGAWFCQACWNSARTCGPYVG) [reference compound]",Km,"[1]; hippuryl-L-arginine substrate, Lineweaver-Burke, read-out: Km of CPR in the presence of the inhibitor",12.3 mM
same,effect on TM-induced retardation of t-PA-induced fibrinolysis (in words),[2],permitting fibrinolysis to proceed
same,Ki,CPR; read-out: Ki against CPR (literature),0.4 nM
tetrapeptide C-terminal fragment of PCI: tetrapeptide C-terminal fragment of PCI (PYVG),inhibitory activity against CPR (in words),[1],does not inhibit
